Reference: publication PMC12074596, “The histone deacetylase inhibitor CT-101 flips the switch to fetal hemoglobin expression in sickle cell disease mice” (PLOS One, 2025)

Experiments:
HbF expression = system: HbF expression; design: method as in PMID 26045597; settings: adults with SCD; cited from earlier work
β-YAC transgenic mice = experiment: Complete blood counts, differentials and reticulocytes in β-YAC mice (Studies 1 and 2); type: in vivo, mouse
Experimental: (§2) Each treatment group consisted of six mice per group (3 males and 3 females), and data was combined for 2 replicates for statistical analysis (n = 12). We collected tail vein blood at weeks 0, 2, and 4 and analyzed complete blood counts and differentials using an automated Micros 60 device (HORIBA Medical/ABX Diagnostics, Irvine, CA). The level of F-cells and mean fluorescence intensity (MFI) was determined by flow cytometry as previously published [28].

HbF [1] = experiment: Flow cytometry of F-cells and MFI in peripheral blood of β-YAC mice; type: in vivo, β-YAC transgenic mice; settings: Study 1; HU 100 mg/kg; week 4; p < 0.001
Experimental: as §2
Flow cytometry was conducted on the FACSCanto machine (BD Biosciences, San Jose, CA) using gating parameters previously published by our group [28]. Briefly, the forward scatter and side scatter were set to gate erythroid cells, then during FLOWJO analysis, ‘log F-cell’‘ histograms (X-axis) generated to measure the percentage of HbF positive cells (F-cells) from total erythroid cells (Y-axis) after gating on the negative isotype control cells. The mean fluorescence intensity (MFI) to quantify the level of HbF protein per cell was generated by FLOWJO software.

Townes SCD mice [2] = experiment: Survival, weight and behavior of SCD mice (Study 3); type: in vivo, mouse; settings: both replicates combined
Experimental: The study design was the same as in Studies 1 and 2, using SCD mice (4–6 months old) dosed once daily by IP injections, with water, HU (100 mg/kg), vehicle (FORM 3), CT-101 in FORM-3 (10 mg/kg), and combined HU and CT-101 administration. The study period was 4 weeks, and two independent replicates were combined for statistical analysis (n = 8–12). Blood collected at weeks 0, 2, and 4 were analyzed for complete blood count and differential, and F-cells and MFI quantified by flow cytometry. Blood stained with acridine orange (BD retic-count reagent) quantified reticulocytes by flow cytometry [31].

Townes SCD mice [3] = experiment: Complete blood counts, differentials and reticulocytes in SCD mice (Study 3); type: in vivo, mouse; settings: HU 100 mg/kg; throughout the study; p < 0.01
Experimental: The study period was 4 weeks, and two independent replicates were combined for statistical analysis (n = 8–12). Blood collected at weeks 0, 2, and 4 were analyzed for complete blood count and differential, and F-cells and MFI quantified by flow cytometry. Blood stained with acridine orange (BD retic-count reagent) quantified reticulocytes by flow cytometry [31].

spleen = experiment: Spleen size and hematoxylin and eosin histology in SCD mice; type: in vivo, Townes SCD mice
Experimental: (§1) At the end of the 4-week treatment period, approximately 700 μL of blood was collected from each mouse into K3-EDTA tubes (Becton Dickinson, Franklin Lakes, NJ; catalog #365974) by cardiac puncture for plasma isolation after euthanasia using carbon dioxide gas. Subsequently, spleens were harvested for tissue stains, immunohistology, and protein isolation. A part of the spleen was fixed with buffered formaldehyde, embedded in paraffin, and sectioned into ~[…] thick slices for staining with hematoxylin and eosin for histology of spleen structures using a Keyence microscope (Keyence Itasca, IL). The immuno-histology staining was performed on frozen spleen sections using sheep polyclonal antibody against HbF conjugated with FITC (Life Technologies Corporation; catalog #A80-136F) and counterstained with DAPI (4′,6-diamidino-2-phenylindole) to identify the cell nucleus. The spleen tissue was analyzed using the EVOS cell imaging system (ThermoFisher, Waltham, MA) under x40 magnifications. The FITC-positive cells were counted for 15 high-power fields per section, and the mean average of the fields was used for statistical analysis.

HbF [4] = experiment: Immuno-histology of spleen with FITC anti-HbF antibody in SCD mice; type: in vivo, Townes SCD mice; settings: end of four-week treatment
Experimental: as §1

micronuclei = experiment: Micronuclei assay in SCD mouse blood; type: in vivo, Townes SCD mice; settings: end of treatment; p < 0.05
Source text: DNA was stained with propidium iodide/phycoerythrin for simultaneous measurement of cell viability, followed by FACSCAN flow cytometry analysis. Propidium iodide/phycoerythrin supplied in the MN analysis kit (Litron Laboratories, Rochester, NY; catalog #PLUS-M) was used as a positive control for CD71-FITC; the number of MN positive cells were counted in cell positive for CD71 and MN as previously published.

histone H3 and H4 = experiment: Western blot of histone acetylation in spleen of SCD mice; type: in vivo, Townes SCD mice; settings: end of treatment
Experimental: The total splenic cells were processed for histone acetylation levels by Western blot as previously published by our group.
Acidic histone extraction was performed according to standard protocols described previously by our group. […] Western blot quantitative data were collected by densitometry analysis using Image J software.

[5] = Study 1, HU 100 mg/kg IP five days a week for four weeks

| SMILES | HbF expression (HbF expression) | change in reticulocyte counts (β-YAC transgenic mice; Study 1, HU 100 mg/kg) | decrease in hematocrit (β-YAC transgenic mice; [5]) [%] | decrease in hemoglobin (β-YAC transgenic mice; [5]) [%] | decrease in platelets (β-YAC transgenic mice; [5]) [%] | decrease in total white cell counts (β-YAC transgenic mice; [5]) [%] | change in mean corpuscular volume of RBCs (β-YAC transgenic mice; Study 1, HU 100 mg/kg, p < 0.001) | effect on total white blood counts and platelets (β-YAC transgenic mice; Study 2, HU 100 mg/kg alone or with CT-101 10 mg/kg) | increase in F-cells (HbF [1]) [fold] | survival (Townes SCD mice [2]) [%] | decrease in platelet counts (Townes SCD mice [3]) [%] | decrease in overall spleen size (spleen; HU 100 mg/kg, four weeks, p < 0.01) [%] | spleen histology (hematoxylin and eosin) (spleen; end of four-week treatment) | increase in HbF-positive erythroid cells in spleen tissue (HbF [4]) [fold] | increased production of micronuclei (micronuclei) [fold] | change in total or acetylated histone H3 and H4 levels in spleen (histone H3 and H4) |
| --- | --- | --- | --- | --- | --- | --- | --- | --- | --- | --- | --- | --- | --- | --- | --- | --- |
| O=C(CCCCCCC(=O)Nc1ccccc1)NO [Vorinostat] | did not induce HbF expression |  |  |  |  |  |  |  |  |  |  |  |  |  |  |  |
| NC(=O)NO [HU, hydroxyurea] |  | increase | 12 | 12 | 30 | 24 | increasing | decrease | 5.4 | 83 | 50 | 37 | decrease in hemorrhagic infarcts and maturing extramedullary hematopoiesis | 1.8 | 1.8 | not statistically significance differences |
